The supplement of paper PMC5908809

Legend:
[1] = tested on: normal NK cells expanded with K562-aAPC; experiment: drug sensitivity score (DSS) (DSS units); higher = more sensitive; extreme values may be limits of the assay; settings: 72 h; IL-2 2.5 ng/mL
Method: (§1)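 Drug sensitivity and resistance testing on K562-aAPC-expanded normal NK cells: 5 concentrations (10-fold steps over a 10,000-fold range), 72 h at 37 °C, viability by CellTiter-Glo normalised to DMSO and benzethonium chloride controls; DSS from the fitted curve.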

NK-YS (IL-2 2.5 ng/mL) [2] = experiment: as above; settings: 72 h
YT (IL-2 2.5 ng/mL) [3] = experiment: as above; settings: 72 h
KAI3 (IL-2 2.5 ng/mL) [4] = experiment: as above; settings: 72 h
NKL (IL-2 2.5 ng/mL) [5] = experiment: as above; settings: 72 h
[6] = tested on: normal primary NK cells, pool 1 (3 donors) (IL-2 2.5 ng/mL); experiment: as above; settings: 72 h
DERL-7 (IL-2 2.5 ng/mL) [7] = experiment: as above; settings: 72 h
[8] = tested on: normal primary NK cells, pool 3 (3 donors) (IL-2 2.5 ng/mL); experiment: as above; settings: 72 h
NK-92 (IL-2 2.5 ng/mL) [9] = experiment: as above; settings: 72 h
SNK-6 (IL-2 2.5 ng/mL) [10] = experiment: as above; settings: 72 h
[11] = tested on: normal primary NK cells, pool 2 (3 donors) (IL-2 2.5 ng/mL); experiment: as above; settings: 72 h
[12] = tested on: normal primary NK cells, pool 1 (3 donors), resting (IL-2 0 ng/mL); experiment: as above; settings: 72 h
KHYG-1 (IL-2 2.5 ng/mL) [13] = experiment: as above; settings: 72 h
IMC-1 (IL-2 20 ng/mL) [14] = experiment: as above; settings: 72 h
NK-YS (IL-2 2.5 ng/mL) [15] = experiment: percent inhibition of viability; higher = more inhibition; settings: 72 h
YT (IL-2 2.5 ng/mL) [16] = experiment: as above; settings: 72 h
KAI3 (IL-2 2.5 ng/mL) [17] = experiment: as above; settings: 72 h
NKL (IL-2 2.5 ng/mL) [18] = experiment: as above; settings: 72 h
[19] = tested on: normal primary NK cells, pool 1 (3 donors) (IL-2 2.5 ng/mL); experiment: as above; settings: 72 h
DERL-7 (IL-2 2.5 ng/mL) [20] = experiment: as above; settings: 72 h
[21] = tested on: normal primary NK cells, pool 3 (3 donors) (IL-2 2.5 ng/mL); experiment: as above; settings: 72 h
NK-92 (IL-2 2.5 ng/mL) [22] = experiment: as above; settings: 72 h
SNK-6 (IL-2 2.5 ng/mL) [23] = experiment: as above; settings: 72 h
[24] = tested on: normal primary NK cells, pool 2 (3 donors) (IL-2 2.5 ng/mL); experiment: as above; settings: 72 h
[25] = tested on: normal primary NK cells, pool 1 (3 donors), resting (IL-2 0 ng/mL); experiment: as above; settings: 72 h
KHYG-1 (IL-2 2.5 ng/mL) [26] = experiment: as above; settings: 72 h
IMC-1 (IL-2 20 ng/mL) [27] = experiment: as above; settings: 72 h
[28] = tested on: normal NK cells expanded with K562-aAPC; experiment: as above; settings: 72 h, IL-2 2.5 ng/mL
Method: as §1

COc1cc2c(NC3CCN(C(C)C)CC3)nc(N3CCC(F)(F)CC3)nc2cc1OCCCN1CCCC1 [UNC0642] (max concentration tested 10000 nM)
Settings | drug sensitivity score
DERL-7 (IL-2 2.5 ng/mL) [7] | 5.6
IMC-1 (IL-2 20 ng/mL) [14] | 6.92
KAI3 (IL-2 2.5 ng/mL) [4] | 11.3
KHYG-1 (IL-2 2.5 ng/mL) [13] | 2.2
NK-92 (IL-2 2.5 ng/mL) [9] | 3.1
NK-YS (IL-2 2.5 ng/mL) [2] | 6.94
NKL (IL-2 2.5 ng/mL) [5] | 9.05
SNK-6 (IL-2 2.5 ng/mL) [10] | 9.35
YT (IL-2 2.5 ng/mL) [3] | 4.75
[1] | 7.22
[6] | 8.52
[8] | 5.16
[11] | 5.23
[12] | 9.04

percent inhibition of viability [%]
Settings | 1 nM | 10 nM | 100 nM | 1000 nM | 10000 nM
DERL-7 (IL-2 2.5 ng/mL) [20] | -0.28 | 1.37 | -1.94 | 0.05 | 99.9
IMC-1 (IL-2 20 ng/mL) [27] | -11.9 | -4.05 | -6.38 | 8.61 | 100
KAI3 (IL-2 2.5 ng/mL) [17] | -0.96 | 1.92 | 10.1 | 48.5 | 103
KHYG-1 (IL-2 2.5 ng/mL) [26] | -4.39 | -1.22 | -6.31 | 6.97 | 28.1
NK-92 (IL-2 2.5 ng/mL) [22] | -11 | -2.07 | -11.4 | 3.52 | 49
NK-YS (IL-2 2.5 ng/mL) [15] | -3.38 | -1.95 | 0.35 | 8.5 | 101
NKL (IL-2 2.5 ng/mL) [18] | -6.06 | -13.9 | -8.65 | 22.1 | 105
SNK-6 (IL-2 2.5 ng/mL) [23] | -9.05 | 11.3 | 2.25 | 25.3 | 99.3
YT (IL-2 2.5 ng/mL) [16] | -6.39 | -3.26 | -2.23 | 4.47 | 74.2
[19] | -1.76 | 13.1 | 19.9 | 18.1 | 101
[21] | -1.76 | 4.79 | 4.65 | -5.45 | 100
[24] | -4.62 | 6.45 | -2.04 | -4.01 | 99.7
[25] | 9.19 | 22.7 | 14 | 28.9 | 98.6
[28] | -4.11 | -7.96 | -1.75 | 10.2 | 100

O=C(O)CCCCC(CCSCc1ccccc1)SCc1ccccc1 (configuration not stated) [CPI-613] (max concentration tested 10000 nM)
Settings | drug sensitivity score
DERL-7 (IL-2 2.5 ng/mL) [7] | 0
IMC-1 (IL-2 20 ng/mL) [14] | 0
KAI3 (IL-2 2.5 ng/mL) [4] | 0.36
KHYG-1 (IL-2 2.5 ng/mL) [13] | 0.38
NK-92 (IL-2 2.5 ng/mL) [9] | 1.68
NK-YS (IL-2 2.5 ng/mL) [2] | 0.31
NKL (IL-2 2.5 ng/mL) [5] | 0
SNK-6 (IL-2 2.5 ng/mL) [10] | 0.07
YT (IL-2 2.5 ng/mL) [3] | 0.45
[1] | 0
[6] | 0
[8] | 0
[11] | 0
[12] | 3.6

percent inhibition of viability [%]
Settings | 1 nM | 10 nM | 100 nM | 1000 nM | 10000 nM
DERL-7 (IL-2 2.5 ng/mL) [20] | 0.05 | -0.43 | -0.74 | -7.69 | 0.16
IMC-1 (IL-2 20 ng/mL) [27] | -2.98 | -1.62 | -2.71 | -2.84 | 9.03
KAI3 (IL-2 2.5 ng/mL) [17] | 2.88 | -5.51 | 1.38 | 3.07 | 13.6
KHYG-1 (IL-2 2.5 ng/mL) [26] | -0.71 | -6.53 | -1.09 | 2.22 | 14.3
NK-92 (IL-2 2.5 ng/mL) [22] | -12.9 | -8.45 | -13 | 17.1 | 13.7
NK-YS (IL-2 2.5 ng/mL) [15] | -0.06 | -3.64 | -3.63 | 4.79 | 12.5
NKL (IL-2 2.5 ng/mL) [18] | -9.11 | -4.72 | -5.85 | 9.97 | -1.95
SNK-6 (IL-2 2.5 ng/mL) [23] | 2.68 | 9.26 | 7.02 | 3.27 | 15.4
YT (IL-2 2.5 ng/mL) [16] | -4.82 | -6.21 | -4.86 | 4.79 | 13.6
[19] | -0.75 | 13.6 | 2.91 | 3.14 | 0.88
[21] | -7.27 | -0.78 | 1.21 | 3.31 | 2.34
[24] | -4.63 | 4.64 | 5.89 | 2.06 | 9.6
[25] | -1.85 | 9.03 | 13.2 | 15.7 | 14.9
[28] | -7.1 | -6.01 | -4.94 | -0.06 | 8.33

C[C@]1(O)C[C@@H](c2nc(-c3ccc4ccc(-c5ccccc5)nc4c3)c3c(N)nccn32)C1 [Linsitinib] (max concentration tested 10000 nM)
Settings | drug sensitivity score
DERL-7 (IL-2 2.5 ng/mL) [7] | 0
IMC-1 (IL-2 20 ng/mL) [14] | 0
KAI3 (IL-2 2.5 ng/mL) [4] | 0
KHYG-1 (IL-2 2.5 ng/mL) [13] | 0
NK-92 (IL-2 2.5 ng/mL) [9] | 3.33
NK-YS (IL-2 2.5 ng/mL) [2] | 0
NKL (IL-2 2.5 ng/mL) [5] | 0.01
SNK-6 (IL-2 2.5 ng/mL) [10] | 0
YT (IL-2 2.5 ng/mL) [3] | 0.72
[1] | 0
[6] | 0.79
[8] | 0.23
[11] | 1.67
[12] | 3.19

percent inhibition of viability [%]
Settings | 1 nM | 10 nM | 100 nM | 1000 nM | 10000 nM
DERL-7 (IL-2 2.5 ng/mL) [20] | -5.4 | 6.82 | -0.65 | -2.2 | 7.81
IMC-1 (IL-2 20 ng/mL) [27] | -3.5 | -2.97 | -5.08 | -2.76 | -3.58
KAI3 (IL-2 2.5 ng/mL) [17] | 6.27 | -1.21 | -4.49 | -3.92 | -0.2
KHYG-1 (IL-2 2.5 ng/mL) [26] | -4.45 | -3.38 | -4.33 | 0.38 | 8.9
NK-92 (IL-2 2.5 ng/mL) [22] | 2.33 | 5.73 | 13 | 14.5 | 29.1
NK-YS (IL-2 2.5 ng/mL) [15] | -6.48 | -5.34 | -2.18 | 3.9 | 7.93
NKL (IL-2 2.5 ng/mL) [18] | -9.46 | -15.4 | -8.54 | -9.73 | 12.4
SNK-6 (IL-2 2.5 ng/mL) [23] | 5.21 | -12.6 | -15.2 | -16.7 | -11
YT (IL-2 2.5 ng/mL) [16] | 1.95 | 2.48 | 2.32 | 5.99 | 17.4
[19] | -5.96 | -9.98 | -7.82 | -7.33 | 27.3
[21] | -0.78 | 1.11 | 5.04 | -1.16 | 15.8
[24] | -2.53 | 1.1 | -5.12 | 3.42 | 27.6
[25] | -20.4 | -14.2 | 17.7 | 8.71 | 42.2
[28] | -3.84 | -4.8 | -1.86 | -1.74 | 2.14
